From patent publication US4397839A, “Surface active material and process for preparing same” (Tokyo Tanabe Company, Limited, priority 1981, dated 1983)
Values joined by “and” are separate entries in the source; they are usually repeats but may differ in a detail not shown here. Equal entries are not always repeated. Structures can show the parent of a compound that is named as a salt.

Test system: mature rabbits suffering from septicemia induced by Escherichia coli, complicated by RDS
Assay type: in vivo, rabbit
Protocol: Specifically, 32 rabbits in the abovedescribed morbid state were divided into 4 groups including one control (or no-treatment) group. […] Then, all groups were comparatively examined for the degree of improvement in respiratory function. The morbid rabbits were prepared and the degree of lung injury was evaluated according to the methods of Cuevas et al. (Archives of Surgery, 104, 319, 1972), and the circulating titer of endotoxin in blood was determined according to the method of Reinhold et al. (Proceedings of the Society for Experimental Biology and Medicine, 137, 334, 1971). The treatment with the material of the invention and/or kanamycin sulfate was carried out within 24 hours before and after the onset of RDS. The material of the invention was instilled 1-6 times into the airway in a dose of 50-100 mg/kg for each treatment, while 80-150 mg/kg of kanamycin sulfate was intramuscularly injected in 2-8 divided doses. Two days after treatment, the subjects were examined for survival and the degree of lung injury. […] The degree of lung injury becomes severer as the value increases.

`NC[C@H]1O[C@H](O[C@H]2[C@H](O)[C@@H](O[C@H]3O[C@H](CO)[C@@H](O)[C@H](N)[C@H]3O)[C@H](N)C[C@@H]2N)[C@H](O)[C@@H](O)[C@@H]1O` [kanamycin sulfate] was tested, and the “Circulating titer (endotoxin in blood)” value (individual animals (one line per subject)) was 0.10 µg/mL and 0.01 µg/mL and 0.00 µg/mL and 0.40 µg/mL and 0.02 µg/mL, the Survival (individual animals, two days after treatment) was “No and Yes” and the “Degree of lung injury” value (individual animals, two days after treatment, severer as the value increases) was 3 and 0 and 1 and 2.
